According to ChEMBL document CHEMBL1149623, “Identification of antibacterial and antiviral activities of novel fused 1,2,4-triazine esters” (2007):

Experiments:
[1] = tested on: HEK293; experiment: Cytotoxicity against human HEK293 cells at 100 ug/mL after 72 hrs by MTT assay; assay type: functional
[2] = Cytotoxicity against monkey GMK cells at 2.5 ug/mL after 72 hrs by MTT assay; assay type: functional, Chlorocebus aethiops
[3] = tested on: Staphylococcus aureus; experiment: Antibacterial activity against Staphylococcus aureus ATCC 25923 at 100 mg/mL after 24 hrs by disc diffusion method; assay type: functional
[4] = tested on: Staphylococcus epidermidis; experiment: Antibacterial activity against Staphylococcus epidermidis at 100 mg/mL after 24 hrs by disc diffusion method; assay type: functional
[5] = tested on: Streptococcus pyogenes; experiment: Antibacterial activity against Streptococcus pyogenes at 100 mg/mL after 24 hrs by disc diffusion method; assay type: functional
[6] = tested on: Escherichia coli; experiment: Antibacterial activity against Escherichia coli ATCC 25922 at 100 mg/mL after 24 hrs by disc diffusion method; assay type: functional
[7] = Cytotoxicity against monkey GMK cells at 25 ug/mL after 24 hrs by MTT assay; assay type: functional, Chlorocebus aethiops
[8] = Cytotoxicity against monkey GMK cells at 200 ug/mL after 24 hrs by MTT assay; assay type: functional, Chlorocebus aethiops
[9] = Cytotoxicity against monkey GMK cells at 2.5 ug/mL after 48 hrs by MTT assay; assay type: functional, Chlorocebus aethiops
[10] = Cytotoxicity against monkey GMK cells at 25 ug/mL after 48 hrs by MTT assay; assay type: functional, Chlorocebus aethiops
[11] = Cytotoxicity against monkey GMK cells at 100 ug/mL after 72 hrs by MTT assay; assay type: functional, Chlorocebus aethiops
[12] = Cytotoxicity against monkey GMK cells at 25 ug/mL after 96 hrs by MTT assay; assay type: functional, Chlorocebus aethiops
[13] = Cytotoxicity against monkey GMK cells at 100 ug/mL after 96 hrs by MTT assay; assay type: functional, Chlorocebus aethiops
[14] = Cytotoxicity against monkey GMK cells at 50 ug/mL after 120 hrs by MTT assay; assay type: functional, Chlorocebus aethiops
[15] = Cytotoxicity against monkey GMK cells at 200 ug/mL after 120 hrs by MTT assay; assay type: functional, Chlorocebus aethiops
[16] = tested on: HEK293; experiment: Cytotoxicity against human HEK293 cells at 2.5 ug/mL after 24 hrs by MTT assay; assay type: functional
[17] = tested on: HEK293; experiment: Cytotoxicity against human HEK293 cells at 100 ug/mL after 24 hrs by MTT assay; assay type: functional
[18] = tested on: HEK293; experiment: Cytotoxicity against human HEK293 cells at 2.5 ug/mL after 48 hrs by MTT assay; assay type: functional
[19] = tested on: HEK293; experiment: Cytotoxicity against human HEK293 cells at 5 ug/mL after 72 hrs by MTT assay; assay type: functional
[20] = tested on: HEK293; experiment: Cytotoxicity against human HEK293 cells at 50 ug/mL after 72 hrs by MTT assay; assay type: functional
[21] = tested on: HEK293; experiment: Cytotoxicity against human HEK293 cells at 2.5 ug/mL after 96 hrs by MTT assay; assay type: functional
[22] = tested on: HEK293; experiment: Cytotoxicity against human HEK293 cells at 100 ug/mL after 120 hrs by MTT assay; assay type: functional
[23] = tested on: Human adenovirus 5; experiment: Antiviral activity against Human adenovirus 5 in HEK293 cells assessed as virus titre at 200 ug/mL after 1 hr; assay type: functional
[24] = tested on: Human adenovirus 5; experiment: Antiviral activity against Human adenovirus 5 in HEK293 cells assessed as inhibition of virus titre at 200 ug/mL after 24 hrs by CPE method; assay type: functional; conditions: Human mastadenovirus C, HEK293, 24 h
[25] = tested on: Echovirus E9; experiment: Antiviral activity against Human echovirus 9 in GMK cells assessed as inhibition of virus titre at 100 ug/mL after 24 hrs by CPE method; assay type: functional; conditions: Enterovirus B
[26] = tested on: Human adenovirus 5; experiment: Antiviral activity against Human adenovirus 5 in HEK293 cells assessed as inhibition of virus titre at 50 ug/mL after 24 hrs by CPE method; assay type: functional; conditions: Human mastadenovirus C, HEK293, 24 h
[27] = tested on: Human adenovirus 5; experiment: Antiviral activity against Human adenovirus 5 in HEK293 cells assessed as inhibition of virus titre at 100 ug/mL after 24 hrs by CPE method; assay type: functional; conditions: Human mastadenovirus C, HEK293, 24 h
[28] = tested on: Echovirus E9; experiment: Antiviral activity against Human echovirus 9 in GMK cells assessed as inhibition of virus titre at 50 ug/mL after 24 hrs by CPE method; assay type: functional; conditions: Enterovirus B
[29] = tested on: Echovirus E9; experiment: Antiviral activity against Human echovirus 9 in GMK cells assessed as inhibition of virus titre at 200 ug/mL after 24 hrs by CPE method; assay type: functional; conditions: Enterovirus B

SMILES | Activity [1] | Activity [2] | Inhibition [3] | Activity [7] | Activity [8] | Activity [9] | Activity [10] | Activity [11] | Activity [12] | Activity [13] | Activity [14] | Activity [15] | Activity [16] | Activity [17] | Activity [18] | Activity [19] | Activity [20] | Activity [21] | Activity [22] | TCID50 [23] | other results
COC(=O)CC1NN=C2N(CCN2c2cccc(Cl)c2)C1=O (configuration not stated) | 55% | 100% | 16 mm | 100% | 80% | 100% | 100% | 20% | 95% | 0% | 90% | 0% | 100% | 98% | 100% | 100% | 95% | 100% | 50% | 3.23 mL⁻¹ | Inhibition [4]: 16 mm; Inhibition [5]: 10 mm; Inhibition [6]: >20 mm; inhibition at 200 µg/mL [24]: 8%; inhibition at 100 µg/mL [25]: 9.9%
CCOC(=O)CC1NN=C2N(CCN2c2ccc(C)cc2)C1=O (configuration not stated) | 70% | 100% | – | 100% | 0% | 100% | 90% | 70% | 80% | 70% | 70% | 0% | 100% | 70% | 100% | 100% | 80% | 100% | 70% | 2.5 mL⁻¹ | inhibition at 50 µg/mL [26]: 23%; inhibition at 100 µg/mL [27]: 23%; inhibition at 200 µg/mL [24]: 23%
CCOC(=O)CC1NN=C2N(CCN2c2ccc(Cl)cc2)C1=O (configuration not stated) | 70% | 100% | <9 mm | 100% | 100% | 100% | 100% | 100% | 100% | 100% | 100% | 95% | 100% | 95% | 100% | 100% | 100% | 100% | 50% | 3.5 mL⁻¹ | Inhibition [4]: 16 mm; Inhibition [5]: >20 mm; Inhibition [6]: 10 mm; inhibition at 50 µg/mL [28]: 9.4%; inhibition at 200 µg/mL [29]: 25%
